Experimental data taken from patent US20230416275A1, “MODULATORS OF CYSTIC FIBROSIS TRANSMEMBRANE CONDUCTANCE REGULATOR” (VERTEX PHARMACEUTICALS INCORPORATED, priority 2020, published 2023).

Columns and labels:
F508del in NIH 3T3 cells = molecular target: T1, F508del in NIH 3T3 cells (Homo sapiens, UniProt P13569, DEL508-508); experiment: 3T3 assay: membrane potential optical assay for F508del correction; type: cell-based, mouse; details: for EC50: F508del NIH 3T3 cells, compound incubation 18-24 hours at 37° C., forskolin activation, read-out: 3T3 EC50; for Emax: NIH3T3, F508del NIH 3T3 cells, efficacy compared to lumacaftor in combination with acutely added 300 nM Ivacaftor, read-out: 3T3 Max Activity (%)
T1 construct: expressed in transfected cells
T1 sequence (P13569 with tags, fused parts or gaps DEL508-508): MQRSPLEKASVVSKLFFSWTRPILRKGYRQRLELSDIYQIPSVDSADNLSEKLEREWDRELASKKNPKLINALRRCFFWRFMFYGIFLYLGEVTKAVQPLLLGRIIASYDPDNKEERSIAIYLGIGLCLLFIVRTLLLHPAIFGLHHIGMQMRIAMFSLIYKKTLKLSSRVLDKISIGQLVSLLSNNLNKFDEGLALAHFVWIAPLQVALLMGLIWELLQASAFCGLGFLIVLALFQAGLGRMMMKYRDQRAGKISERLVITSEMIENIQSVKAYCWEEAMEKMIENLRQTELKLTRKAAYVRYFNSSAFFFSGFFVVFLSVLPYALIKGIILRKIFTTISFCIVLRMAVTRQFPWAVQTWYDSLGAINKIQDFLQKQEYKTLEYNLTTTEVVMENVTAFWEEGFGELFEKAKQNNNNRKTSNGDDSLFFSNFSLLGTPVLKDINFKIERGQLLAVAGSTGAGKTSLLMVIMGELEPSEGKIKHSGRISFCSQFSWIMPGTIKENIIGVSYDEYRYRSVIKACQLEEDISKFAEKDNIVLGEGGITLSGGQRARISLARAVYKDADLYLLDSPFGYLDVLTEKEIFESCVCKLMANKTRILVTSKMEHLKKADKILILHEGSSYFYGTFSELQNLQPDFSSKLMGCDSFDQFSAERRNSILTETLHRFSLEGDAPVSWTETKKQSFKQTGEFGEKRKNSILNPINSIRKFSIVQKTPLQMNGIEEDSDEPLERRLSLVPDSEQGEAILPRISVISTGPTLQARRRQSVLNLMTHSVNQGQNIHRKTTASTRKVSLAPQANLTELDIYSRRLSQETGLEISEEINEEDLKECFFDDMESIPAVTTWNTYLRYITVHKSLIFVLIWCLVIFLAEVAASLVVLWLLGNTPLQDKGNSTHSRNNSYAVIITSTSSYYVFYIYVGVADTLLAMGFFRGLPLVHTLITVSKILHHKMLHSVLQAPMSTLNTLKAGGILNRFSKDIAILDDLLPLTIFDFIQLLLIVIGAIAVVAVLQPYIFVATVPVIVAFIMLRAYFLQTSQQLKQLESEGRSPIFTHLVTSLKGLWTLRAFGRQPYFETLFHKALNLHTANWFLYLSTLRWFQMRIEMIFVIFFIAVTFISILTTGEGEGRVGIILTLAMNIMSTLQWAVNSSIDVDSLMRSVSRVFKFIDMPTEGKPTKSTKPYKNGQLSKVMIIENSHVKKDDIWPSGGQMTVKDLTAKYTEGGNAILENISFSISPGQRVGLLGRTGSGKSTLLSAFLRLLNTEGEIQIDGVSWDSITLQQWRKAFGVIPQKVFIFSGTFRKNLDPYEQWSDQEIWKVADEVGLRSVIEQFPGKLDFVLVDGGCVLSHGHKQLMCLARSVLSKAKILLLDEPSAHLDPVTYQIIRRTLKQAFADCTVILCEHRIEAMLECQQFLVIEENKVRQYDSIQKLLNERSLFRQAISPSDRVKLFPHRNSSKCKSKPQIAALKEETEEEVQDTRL
Excerpt: a. Membrane Potential Optical Methods for Assaying F508del Modulation Properties of Compounds
The assay utilizes fluorescent voltage sensing dyes to measure changes in membrane potential using a fluorescent plate reader (e.g., FLIPR III, Molecular Devices, Inc.) as a readout for increase in functional F508del in NIH 3T3 cells. The driving force for the response is the creation of a chloride ion gradient in conjunction with channel activation by a single liquid addition step after the cells have previously been treated with compounds and subsequently loaded with a voltage sensing dye.
b. Identification of Corrector Compounds
To identify correctors of F508del, a single-addition HTS assay format was developed. This HTS assay utilizes fluorescent voltage sensing dyes to measure changes in membrane potential on the FLIPR III as a measurement for increase in gating (conductance) of F508del in F508del NIH 3T3 cells. The F508del NIH 3T3 cell cultures were incubated with the corrector compounds at a range of concentrations for 18-24 hours at 37° C., and subsequently loaded with a redistribution dye. The driving force for the response is a Cl^− ion gradient in conjunction with channel activation with forskolin in a single liquid addition step using a fluorescent plate reader such as FLIPR III.
Bath Solution #1: (in mM) NaCl 160, KCl 4.5, CaCl2 2, MgCl2 1, HEPES 10, pH 7.4 with NaOH.
Chloride-free bath solution: Chloride salts in Bath Solution #1 (above) are substituted with gluconate salts.
NIH3T3 mouse fibroblasts stably expressing F508del are used for optical measurements of membrane potential. The cells are maintained at 37° C. in 5% CO2 and 90% humidity in Dulbecco's modified Eagle's medium supplemented with 2 mM glutamine, 10% fetal bovine serum, 1×NEAA, b-ME, 1× pen/strep, and 25 mM HEPES in 175 cm^2 culture flasks. For all optical assays, the cells were seeded at ˜20,000/well in 384-well Matrigel-coated plates. For the correction assays, the cells are cultured at 37° C. with and without compounds for 16-24 hours.

[1] = molecular target: CFTR-mediated chloride transport in human intestinal epithelial enteroid cells (Homo sapiens, UniProt P13569); experiment: Membrane potential dye, Enteroid Assay A; type: cell-based; details: for Ent. A Max Activity (%): % of chloride transport of triple combination control (3 μM N-[(6-amino-2-pyridyl)sulfonyl]-6-(3-fluoro-5-isobutoxy-phenyl)-2-[(4S)-2,2,4-trimethylpyrrolidin-1-yl]pyridine-3-carboxamide, 3 μM tezacaftor, 300 nM acute ivacaftor); for EC50: enteroid cells, 18-24 hours incubation, acute 10 μM forskolin and 300 nM ivacaftor, read-out: Ent. A EC50
Chain of CFTR-mediated chloride transport in human intestinal epithelial enteroid cells (P13569 with tags, fused parts or gaps DEL508-508): as above
Experimental: Base medium (ADF+++) consisted of Advanced DMEM/Ham's F12, 2 mM Glutamax, 10 mM HEPES, […] penicillin/streptomycin.
Intestinal enteroid maintenance medium (IEMM) consisted of ADF+++, 1×B27 supplement, 1×N2 supplement, 1.25 mM N-acetyl cysteine, 10 mM Nicotinamide, 50 ng/mL hEGF, 10 nM Gastrin, 1 μg/mL hR-spondin-1, 100 ng/mL hNoggin, TGF-b type 1 inhibitor A-83-01, 100 μg/mL Primocin, 10 μM P38 MAPK inhibitor SB202190.
Bath 1 Buffer consisted of 1 mM MgCl2, 160 mM NaCl, 4.5 mM KCl, 10 mM HEPES, 10 mM Glucose, 2 mM CaCl2.
Chloride Free Buffer consisted of 1 mM Magnesium Gluconate, 2 mM Calcium Gluconate, 4.5 mM Potassium Gluconate, 160 mM Sodium Gluconate, 10 mM HEPES, 10 mM Glucose.
Bath1 Dye Solution consisted of Bath 1 Buffer, 0.04% Pluronic F127, 20 μM Methyl Oxonol, 30 μM CaCCinh-A01, 30 μM Chicago Sky Blue.
Chloride Free Dye Solution consisted of Chloride Free Buffer, 0.04% Pluronic F127, 20 μM Methyl Oxonol, 30 μM CaCCinh-A01, 30 μM Chicago Sky Blue.
Chloride Free Dye Stimulation Solution consisted of Chloride Free Dye Solution, 10 μM forskolin, 100 μM IBMX, and 300 nM Compound III.
Human intestinal epithelial enteroid cells were obtained from the Hubrecht Institute for Developmental Biology and Stem Cell Research, Utrecht, The Netherlands and expanded in T-Flasks as previously described (Dekkers J F, Wiegerinck C L, de Jonge H R, Bronsveld I, Janssens H M, de Winter-de Groot K M, Brandsma A M, de Jong N W M, Bijvelds M J C, Scholte B J, Nieuwenhuis E E S, van den Brink S, Clevers H, van der Ent C K, Middendorp S and M Beekman J M. A functional CFTR assay using primary cystic fibrosis intestinal organoids. Nat Med. 2013 July; 19(7):939-45).
c. Enteroid Cell Harvesting and Seeding
Cells were recovered in cell recovery solution, collected by centrifugation at 650 rpm for 5 minutes at 4° C., resuspended in TrypLE and incubated for 5 minutes at 37° C. Cells were then collected by centrifugation at 650 rpm for 5 minutes at 4° C. and resuspended in IEMM containing 10 μM ROCK inhibitor (RI). The cell suspension was passed through a 40 μm cell strainer and resuspended at 1×10^6 cells/mL in IEMM containing 10 μM RI. Cells were seeded at 5000 cells/well into multi-well plates and incubated for overnight at 37° C., 95% humidity and 5% CO2 prior to assay.
d. Membrane Potential Dye, Enteroid Assay A
Enteroid cells were incubated with test compound in IEMM for 18-24 hours at 37° C., 95% humidity and 5% CO2. […] Briefly, cells were washed 5 times in Bath 1 Buffer. Bath 1 Dye Solution was added, and the cells were incubated for 25 minutes at room temperature. Following dye incubation, cells were washed 3 times in Chloride Free Dye Solution. Chloride transport was initiated by addition of Chloride Free Dye Stimulation Solution and the fluorescence signal was read for 15 minutes. […] Chloride transport was then expressed as a percentage of the chloride transport following treatment with 3 μM N-[(6-amino-2-pyridyl)sulfonyl]-6-(3-fluoro-5-isobutoxy-phenyl)-2-[(4S)-2,2,4-trimethylpyrrolidin-1-yl]pyridine-3-carboxamide, 3 μM (R)-1-(2,2-difluorobenzo[d][1,3]dioxol-5-yl)-N-(1-(2,3-dihydroxypropyl)-6-fluoro-2-(1-hydroxy-2-methylpropan-2-yl)-1H-indol-5-yl)cyclopropanecarboxamide and 300 nM acute N-[2,4-bis(1,1-dimethylethyl)-5-hydroxyphenyl]-1,4-dihydro-4-oxoquinoline-3-carboxamide triple combination control (% Activity).

| SMILES | EC50 (F508del in NIH 3T3 cells) [nM] | Emax (F508del in NIH 3T3 cells) [%] | EC50 [1] [nM] | Ent. A Max Activity (%) [1] |
| --- | --- | --- | --- | --- |
| Cc1cccc(C)c1-c1cc2nc(n1)NS(=O)(=O)c1cccc(c1)NC(=O)[C@H]1C[C@H](CN(C(=O)OC(C)(C)C)C1)O2 (single isomer, unassigned) [Compound 1] | < 1000 | 30 to 60 |  | + (+ is <30%) |
| Cc1cccc(C)c1-c1cc2nc(n1)NS(=O)(=O)c1cccc(c1)NC(=O)[C@@H]1C[C@@H](CN(CCN(C)C)C1)O2 [Compound 20] |  |  | 3000 to 30000 | + (+ is <30%) |
| CCN1C[C@@H]2C[C@H](C1)C(=O)Nc1cccc(c1)S(=O)(=O)Nc1nc(cc(-c3c(C)cccc3C)n1)O2 [Compound 39] |  |  | 3000 to 30000 | +++ (+++ is >60%) |
| Cc1cccc(C)c1-c1cc2nc(n1)NS(=O)(=O)c1cccc(c1)NC(=O)[C@H]1C[C@H](CN1C(=O)OC(C)(C)C)O2 [Compound 79] |  |  |  | + (+ is <30%) |
| Cc1cccc(C)c1-c1cc2nc(n1)NS(=O)(=O)c1cccc(c1)NC(=O)[C@@H]1C[C@@H](CN1C(=O)OC(C)(C)C)O2 [Compound 80] |  |  |  | + (+ is <30%) |
| Cc1cccc(C)c1-c1cc2nc(n1)NS(=O)(=O)c1cccc(c1)NC(=O)[C@@H]1C[C@H](O2)C(=O)N(CCC(C)(C)C)C1 [Compound 88] |  |  | 3000 to 30000 | ++ (++ is 30-60%) |
| Cc1cccc(C)c1-c1cc2nc(n1)NS(=O)(=O)c1cccc(c1)NC(=O)[C@@H]1C[C@H](O2)C(=O)N(CCC(C)(C)C)C1 [Compound 89] |  |  |  | + (+ is <30%) |
| Cc1cccc(C)c1-c1cc2nc(n1)NS(=O)(=O)c1cccc(c1)NC(=O)[C@@H]1C[C@H](O2)C(=O)N(CCC(C)(C)C)C1 [Compound 90] |  |  | 3000 to 30000 | ++ (++ is 30-60%) |
| Cc1cccc(C)c1-c1cc2nc(n1)NS(=O)(=O)c1cccc(c1)NC(=O)[C@@H]1C[C@H](O2)C(=O)N(CCC(C)(C)C)C1 [Compound 91] |  |  | 3000 to 30000 | + (+ is <30%) |
| Cc1cccc(C)c1-c1cc2nc(n1)NS(=O)(=O)c1cccc(c1)NC(=O)C1CC(O2)C(=O)N(CCC(C)(C)C)C1 (stereo not drawn) [Compound 92] |  |  |  | + (+ is <30%) |
| Cc1cccc(C)c1-c1cc2nc(n1)NS(=O)(=O)c1cccc(c1)NC(=O)C1CC(O2)C(=O)N(CCC(C)(C)C)C1 (stereo not drawn) [Compound 93] |  |  |  | ++ (++ is 30-60%) |

Continued, in another order:

| EC50 (F508del in NIH 3T3 cells) [nM] | Emax (F508del in NIH 3T3 cells) [%] | EC50 [1] [nM] | SMILES | Ent. A Max Activity (%) [1] |
| --- | --- | --- | --- | --- |
| < 1000 | > 60 | < 1000 | Cc1cccc(C)c1-c1cc2nc(n1)NS(=O)(=O)c1cccc(c1)NC(=O)[C@@H]1C[C@@H](CN(C(=O)OC(C)(C)C)C1)O2 (single isomer, unassigned) [Compound 2] | +++ (+++ is >60%) |
|  |  | < 1000 | Cc1cccc(C)c1-c1cc2nc(n1)NS(=O)(=O)c1cccc(c1)NC(=O)[C@@H]1C[C@@H](CN(CCCC(C)(C)C)C1)O2 [Compound 22] | ++ (++ is 30-60%) |
|  |  | < 1000 | Cc1cccc(C)c1-c1cc2nc(n1)NS(=O)(=O)c1cccc(c1)NC(=O)[C@@H]1C[C@@H](CN(CCC(C)(C)C3CC3)C1)O2 [Compound 26] | +++ (+++ is >60%) |
|  |  | < 1000 | Cc1cccc(C)c1-c1cc2nc(n1)NS(=O)(=O)c1cccc(c1)NC(=O)[C@@H]1C[C@@H](CN(CC(C)C(F)(F)F)C1)O2 (stereo partly drawn) [Compound 29] | +++ (+++ is >60%) |
|  |  | < 1000 | Cc1cccc(C)c1-c1cc2nc(n1)NS(=O)(=O)c1cccc(c1)NC(=O)[C@@H]1C[C@@H](CN(CC3C(C)(C)C3(C)C)C1)O2 [Compound 31] | ++ (++ is 30-60%) |
|  |  | 1000 to 3000 | COC(=O)N1C[C@@H]2C[C@H](C1)C(=O)Nc1cccc(c1)S(=O)(=O)Nc1nc(cc(-c3c(C)cccc3C)n1)O2 [Compound 32] | +++ (+++ is >60%) |
|  |  | < 1000 | Cc1cccc(C)c1-c1cc2nc(n1)NS(=O)(=O)c1cccc(c1)NC(=O)[C@@H]1C[C@@H](CN(C(=O)OCC(C)(C)C)C1)O2 [Compound 34] | +++ (+++ is >60%) |
|  |  | < 1000 | CCCCCOC(=O)N1C[C@@H]2C[C@H](C1)C(=O)Nc1cccc(c1)S(=O)(=O)Nc1nc(cc(-c3c(C)cccc3C)n1)O2 [Compound 35] | +++ (+++ is >60%) |
|  |  | < 1000 | Cc1cccc(C)c1-c1cc2nc(n1)NS(=O)(=O)c1cccc(c1)NC(=O)[C@@H]1C[C@@H](CN(C(=O)C3(C(F)(F)F)CC3)C1)O2 [Compound 36] | +++ (+++ is >60%) |
|  |  | < 1000 | Cc1cccc(C)c1-c1cc2nc(n1)NS(=O)(=O)c1cccc(c1)NC(=O)[C@@H]1C[C@@H](CN(C(=O)C3C(C)(C)C3(C)C)C1)O2 [Compound 37] | ++ (++ is 30-60%) |
|  |  | 1000 to 3000 | Cc1cccc(C)c1-c1cc2nc(n1)NS(=O)(=O)c1cccc(c1)NC(=O)[C@@H]1C[C@@H](CN(CCC3CCOCC3)C1)O2 [Compound 38] | ++ (++ is 30-60%) |
|  |  | < 1000 | CCCCN1C[C@@H]2C[C@H](C1)C(=O)Nc1cccc(c1)S(=O)(=O)Nc1nc(cc(-c3c(C)cccc3C)n1)O2 [Compound 40] | ++ (++ is 30-60%) |
|  |  | < 1000 | CCCCCCN1C[C@@H]2C[C@H](C1)C(=O)Nc1cccc(c1)S(=O)(=O)Nc1nc(cc(-c3c(C)cccc3C)n1)O2 [Compound 41] | +++ (+++ is >60%) |
|  |  | 1000 to 3000 | Cc1cccc(C)c1-c1cc2nc(n1)NS(=O)(=O)c1cccc(c1)NC(=O)C1CN(C(=O)OC(C)(C)C)CCC1O2 (stereo not drawn) [Compound 78] | ++ (++ is 30-60%) |
